Experimental data from PubChem BioAssay (NCI).
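Compound exposure: 48 hours, 5 concentrations, 96-well plates. TGI: total growth inhibition.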

Columns and labels:
Experiment in all cases: growth of human tumour cells (NCI), 48 h
[1] = test system: CAKI-1 renal
[2] = test system: LOX IMVI melanoma
[3] = test system: UO-31 renal
[4] = test system: IGROV1 ovarian
[5] = test system: SN12C renal
[6] = test system: OVCAR-3 ovarian
[7] = test system: HCT-15 colon
[8] = test system: KM12 colon
[9] = test system: SK-MEL-2 melanoma
[10] = test system: A498 renal
[11] = test system: 786-0 renal
[12] = test system: HCC-2998 colon
[13] = test system: SK-MEL-5 melanoma
[14] = test system: HL-60(TB) leukemia
[15] = test system: K-562 leukemia
[16] = test system: EKVX NSCLC
[17] = test system: PC-3 prostate
[18] = test system: HOP-62 NSCLC
[19] = test system: SR leukemia
[20] = test system: SNB-19 CNS
[21] = test system: NCI-H226 lung
[22] = test system: OVCAR-4 ovarian
[23] = test system: MDA-MB-435
[24] = test system: NCI-H460 lung
[25] = test system: UACC-62 melanoma
[26] = test system: NCI-H23 lung
[27] = test system: HT29 colon
[28] = test system: CCRF-CEM leukemia
[29] = test system: SF-268 CNS
[30] = test system: NCI-H522 lung
[31] = test system: MCF7 breast
[32] = test system: MDA-MB-231 breast
[33] = test system: U251 CNS
[34] = test system: RXF 393 renal
[35] = test system: DU-145 prostate
[36] = test system: SK-OV-3 ovarian
[37] = test system: OVCAR-5 ovarian
[38] = test system: ACHN renal
[39] = test system: MDA-N
[40] = test system: MALME-3M melanoma
[41] = test system: SW-620 colon
[42] = test system: SK-MEL-28 melanoma
[43] = test system: UACC-257 melanoma
[44] = test system: RPMI-8226 leukemia
[45] = test system: BT-549 breast
[46] = test system: MOLT-4 leukemia
[47] = test system: HCT-116 colon
[48] = test system: COLO 205 colon
[49] = test system: TK-10 renal
[50] = test system: HOP-92 NSCLC
[51] = test system: SF-295 CNS
[52] = test system: NCI/ADR-RES ovarian
[53] = test system: SF-539 CNS
[54] = test system: SNB-75 CNS
[55] = test system: T-47D breast
[56] = test system: A549 NSCLC
[57] = test system: OVCAR-8 ovarian
[58] = test system: M14 melanoma

Measured: TGI

[N-]=[N+]=CC(=O)OC1CCOCC1
not listed: [52] | [53] | [54] | [55] | [56] | [57] | [58]
> 100 µM: all other assays above

CCCCN(CC)C(=O)C1=C(C)NC(C)=C(C(=O)N(CC)CCCC)C1
not listed: [15] | [17] | [19] | [28] | [30] | [40] | [44]
> 100 µM: all other assays above

CCOC(=O)c1csc(NC(=O)CN2CCN(c3ccccc3)CC2)n1
not listed: [5] | [11] | [29] | [30] | [45] | [47] | [53]
> 100 µM: all other assays above
